Source: US10675273B2, “Benzothiazole amphiphiles” (The Regents of the University of California, priority 2016, dated 2020)

Tests used:
RasGRF1 = assay: Western blot analysis of RasGRF1 expression; assay type: cell-based, human; details: differentiated SH-SY5Y cells; for increase in RasGRF1 expression compared to untreated cells: 5 μM, 24 h, normalized to β-tubulin
Protocol: Western Blot Analysis of Ras-GRF1 Expression in SH-SY5Y Cells Exposed to BAMs 1-3 or BTA-EG6. Differentiation of SH-SY5Y cells was performed according to a previously described procedure. Briefly, cells were differentiated for 8 days by the addition of 10 μM all-trans-retinoic acid (RA) in the cell culture medium (1:1 EMEM and Ham's F12 supplemented with 10% FBS). Media with RA was changed every 2 days. After 8 days, the media was removed and new, RA-free media containing the sample solutions was added. Cells were exposed to solutions containing a final concentration of the BTA-E6 and BAMs (0, 1, or 5 μM) for 24 hours at 37° C. Cells were than lysed with NP-40 buffer with protease inhibitor (Roche, ref #05892791001) and protein concentration was determined by BCA assay (Pierce BCA Assay Kit, #23225). Proteins were separated by SDS-PAGE (NUPAGE® 4-12% Bis-Tris gel, NUPAGE® MES SDS running buffer) followed by transfer onto nitrocellulose membrane (NOVEX®, LC2000). Membranes were blocked with 3% BSA in Tris-Buffered Saline with Tween 20 (TBST) for 1 h followed by incubation with primary antibodies in 3% BSA/TBST [mouse anti-RasGRF1 (BD 610149) and mouse anti-tubulin-β (Thermo MS1226-P)] overnight at 4° C. with shaking. Membranes were then washed with TBST (3×10 min) and then incubated with a TRITC labeled goat anti-mouse antibody (JAX 115-025-003) for 1 h at RT with shaking. After 1 h, the membranes were washed with TBST (6×5 min) and the proteins were visualized using a Typhoon 8600 variable mode imager (GE Healthcare). The density of each band was then quantified using ImageJ software as a percentage of control following normalization to β-tubulin.

[1] = system: SH-SY5Y human neuroblastoma cells; assay: MTT cell viability assay; assay type: cell-based; details: 24 h exposure, read-out: IC50 of toxicity
Protocol: Measurement of Cell Viability in the Presence of BAMs 1-3 and BTA-EG6. An MTT cell viability assay was performed as previously described. Briefly, SH-SY5Y cells were plated in a 96 well plate at a density of 50,000 cells/well in 100 μL of 1:1 Eagle's Minimum Essential Medium (EMEM) and Ham's F12, supplemented with 10% Fetal Bovine Serum (FBS). Cells were allowed to adhere overnight (37° C., 5% CO2) before dosing with 100 μL of various samples solutions of either BTA-EG6 or BAMs 1-3 with final concentrations (0-250 Cells were exposed to these solutions for 24 h at 37° C., 5% CO2. An MTT cell viability kit (ATCC, Product No: 30-1010K) was then used to determine cell viability. Briefly, 20 μL of the provided MTT reagent was added per well and cells were placed in the incubator for 3 h. The insoluble intracellular purple formazan was then dissolved by the addition of 100 μL of detergent reagent provided and let solubilize overnight at room temperature. The cell viability was determined by measuring the absorbance at 570 nm using a SPECTRAMAX® 190 microplate reader (Molecular Devices). All results are presented as percent reduction of MTT relative to untreated cells (100% viability), and all wells were blanked with absorbance values from the wells containing media, MTT reagent and detergent only.

[2] = Fluorescence emission spectra in water, octanol and aqueous liposome suspension (membrane partitioning); assay type: physicochemical; details: 50 μM compound, DiPhyPC liposomes
Protocol: Measurement of Fluorescence Emission Spectra. The emission spectra of benzothiazoles in different environments was evaluated as previously described. Briefly, BAMs 1-3 and BTA-EG6 were diluted to a final concentration of 50 μM in deionized H2O, pure octanol, and a liposome suspension. The liposomes were prepared from a total lipid concentration of 10 mM of DiPhyPC in water by the gentle dehydration rehydration method followed by tip sonication. 200 μL of each sample was transferred to a cuvette (Hellma® Analytics, Quartz […]® (QS), 10 mm) and the fluorescence emission spectrum was measured in a PTI spectrofluorometer (0.5 nm step size) in water, octanol and an aqueous liposome suspension for BAMs 1-3 and BTA-EG6. Maximal excitation and emission values (λmax) for all compounds were as follows: BTA-EG6 (Ex/Em 355/420 nm), BAM1-EG6 (Ex/Em 355/420 nm), BAM2-EG6, (Ex/Em 365/428 nm), and BAM3-EG6 (Ex/Em 335/398 nm). Each experiment was repeated at least three separate times and error bars denote standard deviation from the mean. Data was processed using ORIGIN® 7.0 (MicroCal Software, Inc., Northampton, Mass.).

[3] = system: rat primary hippocampal neurons; assay: Rescue of Aβ-induced spine loss; assay type: cell-based; details: 1 μM Aβ (1-42) plus 1 or 5 μM compound, 3 days
[4] = system: rat primary hippocampal neurons; assay: Dendritic spine density and morphology in primary hippocampal neurons; assay type: cell-based; details: 24 h exposure, versus vehicle control (0.1% DMSO)
Protocol: Neuronal Cultures. Rat dissociated hippocampal neurons from postnatal day 1 were plated at a density of 45,000 cells/cm^2 onto poly-D-lysine-coated coverslips. Neurons were maintained in B27 supplemented Neurobasal media (Invitrogen) until days in vitro (DIV) 18-23 as previously described.
Neuronal Treatments. For all neuronal treatments the following general protocol was followed: Briefly, 18-23 DIV rat dissociated hippocampal neurons were dosed with various concentrations (0-50 μM final concentration) of BAMs 1-3 or BTA-EGx (with 0.1% final DMSO concentration) for various times (24-72 h depending on the experiment). After dosing and at the desired time point, the media was removed and cells were rinsed with PBS-MC (phosphate-buffered saline, 1 mM MgCl2 and 0.1 mM CaCl2). Following rinsing, cells were fixed with 4% paraformaldehyde (PFA)/sucrose in PBS for 10 min at RT. […]
Confocal Microscopy and Dendritic Spine Analysis. […] Imaged dendrites were straightened using ImageJ, and spine density was the number of manually counted spines divided by dendrite segment length. The analyzer was blind to treatment and statistical significance was determined between experimental conditions by either unpaired t tests (two groups) or by ANOVA and indicated post hoc multiple-comparison test (>2 experimental conditions).

[5] = system: human iPSC-derived neurons; assay: Spine density of PSD95 puncta in 3-month differentiated NSC; assay type: cell-based; details: 5 μM, control DMSO (0.1%)
Protocol: FIG. 10. Quantification of spine density of PSD95 puncta from 3-month differentiated NSC treated with compound or vehicle control The figure depicts neuron micrographs with staining for MAP2, PSD95 and composite under control and compound administration conditions. “Compound” refers to BAM3-EG6 (5 μM), as depicted in FIG. 1. “Control” refers to DMSO (0.1%). MAP2 is a marker for dendrites, and PSD95 is a marker for post-synaptic features. A histogram (below) depicts normalized PSD95 puncta under control and compound administration conditions. It is observed that […] increases spine density by about 50% compared to control in human iPSC-derived neurons.
FIG. 10 depicts quantification of spine density of PSD95 puncta from 3-month differentiated NSC treated with compound or vehicle control. It is observed that BTA-EG4 analog (e.g., those depicted in FIG. 1) increases spine density by about 50% compared to control in human iPSC-derived neurons.

[6] = previously reported [18,19], cited from earlier work
[7] = system: rat primary hippocampal neurons; details: previously reported study [40]; cited from earlier work

OCCOCCOCCOCCOCCOCCSc1ccc(-c2nc3ccccc3s2)cc1 [BAM3-EG6, 17-((4-(benzo[d]thiazol-2-yl)phenyl)thio)-3,6,9,12,15-pentaoxaheptadecan-1-ol]
increase in RasGRF1 expression compared to untreated cells (RasGRF1): 70%

Cc1ccc2nc(-c3ccc(NCCOCCOCCOCCOCCOCCO)cc3)sc2c1 [BTA-EG6]
IC50 [1]: 90 µM
increase in RasGRF1 expression compared to untreated cells (RasGRF1): approximately 20%
change of emission max (λmax) in aqueous liposome suspension from water, relative to λmax in pure octanol [2]: 50%
net increase in dendritic spine density compared to control [3]: ~20%
spine density higher than in cells treated with Aβ (1-42) alone [3]: ~50%

Cc1ccc2nc(-c3ccc(NCCOCCOCCOCCO)cc3)sc2c1 [BTA-EG4]
effect on dendritic spine density (in words) [4]: observed increase in dendritic spine density over the vehicle control
increase in RasGRF1 expression compared to untreated cells (RasGRF1): 20%
effect on RasGRF1 expression levels (in words) (RasGRF1; 1 or 5 μM / increasing concentrations): dose-dependent increase in RasGRF1 levels
increase in spine density (PSD95 puncta) compared to control [5]: about 50%
dendritic spine density in vivo ([6]; mice): phenotypic increase in dendritic spine density
memory and learning in cognitive performance tests ([6]; wild-type mice and mouse model for AD): capability to improve memory and learning

C[C@]12CC[C@@H]3c4ccc(O)cc4CC[C@H]3[C@@H]1CC[C@@H]2O [17β-estradiol]
time required to induce maximal increase in spine density [7]: 96 h
